Measurements: patent US20240270821A1, “GIP/GLP1/GCG TRI-RECEPTOR AGONISTS AND USES THEREOF” (priority 2023, published 2024)
Starred links: 1 amine or outer side, 2 acyl side, 3 side chain; linkers in the order of their positions; H or OH if unused. Non-standard residues stand in square brackets, D forms with d. Residues, ends and D or L forms follow the SMILES beside them. Groups on a side chain read outwards from the residue. *: point of attachment. C18 diacid = O=C(O)CCCCCCCCCCCCCCCCC(=O)*; αMePhe(2-F) = C[C@](N)(Cc1ccccc1F)C(=O)O; γGlu = O=C(O)[C@H](CCC(=O)[*:2])N[*:1]; αMeY = C[C@](N)(Cc1ccc(O)cc1)C(=O)O; 4Pal = N[C@@H](Cc1ccncc1)C(=O)O; αMeL = CC(C)C[C@](C)(N)C(=O)O; Orn = NCCC[C@H](N)C(=O)O; AEEA = NCCOCCOCC(=O)O; Aib = CC(C)(N)C(=O)O

Experiments:
Assay type in all cases: cell-based
hGIPR [1] = biological target: T1, hGIPR (Homo sapiens, UniProt P48546); experiment: Functional cAMP activity in the presence of 1% HSA; settings: read-out: cAMP Rel EC50, hGIPR
T1 sequence (P48546 22-466): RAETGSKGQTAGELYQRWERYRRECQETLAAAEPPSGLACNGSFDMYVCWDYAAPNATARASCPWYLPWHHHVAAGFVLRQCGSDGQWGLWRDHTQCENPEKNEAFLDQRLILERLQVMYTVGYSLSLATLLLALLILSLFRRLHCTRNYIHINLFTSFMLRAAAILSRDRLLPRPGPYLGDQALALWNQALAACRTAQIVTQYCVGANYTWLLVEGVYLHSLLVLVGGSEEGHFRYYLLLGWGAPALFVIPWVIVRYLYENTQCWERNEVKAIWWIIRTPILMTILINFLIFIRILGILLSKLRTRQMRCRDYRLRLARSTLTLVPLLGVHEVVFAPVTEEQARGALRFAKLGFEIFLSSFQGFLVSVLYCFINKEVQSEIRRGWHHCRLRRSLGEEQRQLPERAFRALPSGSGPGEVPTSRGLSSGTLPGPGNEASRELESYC

hGLP-1R [2] = biological target: T2, hGLP-1R (Homo sapiens, UniProt P43220); experiment: Functional cAMP activity in the presence of 1% HSA; settings: read-out: cAMP Rel EC50, hGLP-1R
T2 sequence (P43220 24-463): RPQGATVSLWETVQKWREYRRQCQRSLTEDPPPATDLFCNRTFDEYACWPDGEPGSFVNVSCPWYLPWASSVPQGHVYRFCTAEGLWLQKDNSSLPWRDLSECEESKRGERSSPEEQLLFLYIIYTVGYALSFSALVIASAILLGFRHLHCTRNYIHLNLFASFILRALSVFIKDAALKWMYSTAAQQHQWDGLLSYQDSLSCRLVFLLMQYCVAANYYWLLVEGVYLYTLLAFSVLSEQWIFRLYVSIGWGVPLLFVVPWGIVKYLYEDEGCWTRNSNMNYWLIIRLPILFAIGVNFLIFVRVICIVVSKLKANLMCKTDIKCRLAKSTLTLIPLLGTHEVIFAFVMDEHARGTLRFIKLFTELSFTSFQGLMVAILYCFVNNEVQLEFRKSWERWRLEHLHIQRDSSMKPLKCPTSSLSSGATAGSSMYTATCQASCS

human GcgR = human GcgR (Homo sapiens, UniProt P47871); experiment: Functional cAMP activity in the presence of 1% HSA; settings: read-out: cAMP Rel EC50, hGcgR
Sequence of human GcgR (P47871 26-477): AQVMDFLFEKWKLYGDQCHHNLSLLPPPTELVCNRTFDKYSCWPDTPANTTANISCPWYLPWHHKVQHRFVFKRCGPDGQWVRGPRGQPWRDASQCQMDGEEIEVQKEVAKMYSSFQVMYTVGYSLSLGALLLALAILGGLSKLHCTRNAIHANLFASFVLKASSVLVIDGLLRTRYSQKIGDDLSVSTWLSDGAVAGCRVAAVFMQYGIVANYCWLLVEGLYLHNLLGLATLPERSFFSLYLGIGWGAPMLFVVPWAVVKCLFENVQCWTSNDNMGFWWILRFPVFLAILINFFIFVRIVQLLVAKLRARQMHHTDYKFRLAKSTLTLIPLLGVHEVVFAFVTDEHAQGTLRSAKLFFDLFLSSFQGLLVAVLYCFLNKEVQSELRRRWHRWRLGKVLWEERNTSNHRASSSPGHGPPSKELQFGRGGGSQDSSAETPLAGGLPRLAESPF

hGIPR [3] = biological target: T1, hGIPR; experiment: Functional cAMP activation in the presence of 0.1% casein (no HSA); settings: in the presence of 0.1% casein (no HSA); geometric mean; read-out: Relative cAMP EC50, hGIPR;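 on Relative cAMP EC50, hGIPR: intracellular cAMP rise after 30 min at 37 °C read by HTRF against a standard curve, scaled between buffer alone (0%) and top control ligand concentration (100%), four-parameter fit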;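 on Relative cAMP EC50, hGLP-1R: intracellular cAMP rise after 30 min at 37 °C read by HTRF, normalized between buffer only (0%) and maximal control ligand (100%), four-parameter variable-slope fit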;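 on Relative cAMP EC50, hGcgR: intracellular cAMP rise after 30 min at 37 °C, read by HTRF against a cAMP standard curve, scaled from buffer only (0%) to maximal control ligand response (100%)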
hGLP-1R [4] = biological target: T2, hGLP-1R; experiment: as above; settings: in the presence of 0.1% casein (no HSA); geometric mean; read-out: Relative cAMP EC50, hGLP-1R
hGcgR = hGcgR (Homo sapiens, UniProt P47871); experiment: as above; settings: in the presence of 0.1% casein (no HSA); geometric mean; read-out: Relative cAMP EC50, hGcgR;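 further: intracellular cAMP rise after 30 min at 37 °C, read by HTRF against a cAMP standard curve, scaled from buffer only (0%) to maximal control ligand response (100%)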
Sequence of hGcgR (P47871 26-477): as above

Structure (SMILES) | EC50 (hGIPR [1]) | EC50 (hGLP-1R [2]) | EC50 (human GcgR) | EC50 (hGIPR [3]) | EC50 (hGLP-1R [4]) | EC50 (hGcgR)
CC[C@H](C)[C@H](NC(=O)[C@H](Cc1ccccc1)NC(=O)[C@H](CCCN)NC(=O)C(C)(C)NC(=O)[C@H](CCC(N)=O)NC(=O)[C@H](C)NC(=O)[C@H](CCCCNC(=O)COCCOCCNC(=O)CC[C@H](NC(=O)CCCCCCCCCCCCCCCCC(=O)O)C(=O)O)NC(=O)[C@H](CCCN)NC(=O)[C@H](CC(=O)O)NC(=O)[C@H](CC(C)C)NC(=O)[C@](C)(CC(C)C)NC(=O)[C@@H](NC(=O)[C@H](CO)NC(=O)[C@H](Cc1ccncc1)NC(=O)[C@H](CC(=O)O)NC(=O)[C@H](CO)NC(=O)[C@@H](NC(=O)[C@](C)(Cc1ccccc1F)NC(=O)[C@@H](NC(=O)CNC(=O)[C@H](CCC(N)=O)NC(=O)C(C)(C)NC(=O)[C@@H](N)Cc1ccc(O)cc1)[C@@H](C)O)[C@@H](C)O)[C@@H](C)CC)C(=O)N[C@H](CCC(=O)O)C(=O)N[C@@](C)(Cc1ccc(O)cc1)C(=O)N[C@@H](CC(C)C)C(=O)N[C@@H](CC(C)C)C(=O)N[C@@H](CCC(=O)O)C(=O)NCC(=O)NCC(=O)N1CCC[C@H]1C(=O)N[C@@H](CO)C(=O)N[C@@H](CO)C(=O)NCC(=O)N[C@@H](CCC(=O)O)C(=O)N1CCC[C@H]1C(=O)N1CCC[C@H]1C(=O)N1CCC[C@H]1C(=O)N[C@@H](CO)C(N)=O [Example 367] | 4.89 nM | 30.1 nM | 668 nM | 0.0215 nM | 0.421 nM | 7.95 nM
CC[C@H](C)[C@H](NC(=O)[C@H](Cc1ccccc1)NC(=O)[C@H](CCCN)NC(=O)C(C)(C)NC(=O)[C@H](CCC(N)=O)NC(=O)[C@H](C)NC(=O)[C@H](CCCCNC(=O)COCCOCCNC(=O)CC[C@H](NC(=O)CCCCCCCCCCCCCCCCC(=O)O)C(=O)O)NC(=O)[C@H](CCCN)NC(=O)[C@H](CC(=O)O)NC(=O)[C@H](CC(C)C)NC(=O)[C@](C)(CC(C)C)NC(=O)[C@@H](NC(=O)[C@H](CO)NC(=O)[C@H](Cc1ccncc1)NC(=O)[C@H](CC(=O)O)NC(=O)[C@H](CO)NC(=O)[C@@H](NC(=O)[C@](C)(Cc1ccccc1F)NC(=O)[C@@H](NC(=O)CNC(=O)[C@H](CCC(N)=O)NC(=O)C(C)(C)NC(=O)[C@@H](N)Cc1ccc(O)cc1)[C@@H](C)O)[C@@H](C)O)[C@@H](C)CC)C(=O)N[C@H](CCC(=O)O)C(=O)N[C@@](C)(Cc1ccc(O)cc1)C(=O)N[C@@H](CC(C)C)C(=O)N[C@@H](CC(C)C)C(=O)N[C@@H](CCC(=O)O)C(=O)NCC(=O)NCC(=O)N1CCC[C@H]1C(=O)N[C@@H](CO)C(=O)N[C@@H](CO)C(=O)NCC(=O)N[C@@H](CCC(=O)O)C(=O)N1CCC[C@H]1C(=O)N1CCC[C@H]1C(=O)N1CCC[C@H]1C(=O)N[C@@H](CCC(=O)O)C(N)=O [Example 370] (H-Y[Aib]QGT[αMePhe(2-F)]TSD[4Pal]SI[αMeL]LD[Orn]K([AEEA-γGlu-C18 diacid])AQ[Aib][Orn]FI[dE][αMeY]LLEGGPSSGEPPPE-NH2) | 4.23 nM | 37.5 nM | 803 nM | 0.027 nM | 0.406 nM | 7.06 nM
CC[C@H](C)[C@H](NC(=O)[C@H](Cc1ccccc1)NC(=O)[C@H](CCCN)NC(=O)C(C)(C)NC(=O)[C@H](CCC(N)=O)NC(=O)[C@H](C)NC(=O)[C@H](CCCCNC(=O)CC[C@H](NC(=O)CC[C@H](NC(=O)CCCCCCCCCCCCCCCCC(=O)O)C(=O)O)C(=O)O)NC(=O)[C@H](CCCN)NC(=O)[C@H](CC(=O)O)NC(=O)[C@H](CC(C)C)NC(=O)[C@](C)(CC(C)C)NC(=O)[C@@H](NC(=O)[C@H](CO)NC(=O)[C@H](Cc1ccncc1)NC(=O)[C@H](CC(=O)O)NC(=O)[C@H](CO)NC(=O)[C@@H](NC(=O)[C@](C)(Cc1ccccc1F)NC(=O)[C@@H](NC(=O)CNC(=O)[C@H](CCC(N)=O)NC(=O)C(C)(C)NC(=O)[C@@H](N)Cc1ccc(O)cc1)[C@@H](C)O)[C@@H](C)O)[C@@H](C)CC)C(=O)N[C@H](CCC(=O)O)C(=O)N[C@@](C)(Cc1ccc(O)cc1)C(=O)N[C@@H](CC(C)C)C(=O)N[C@@H](CC(C)C)C(=O)N[C@@H](CCC(=O)O)C(=O)NCC(=O)NCC(=O)N1CCC[C@H]1C(=O)N[C@@H](CO)C(=O)N[C@@H](CO)C(=O)NCC(=O)N[C@@H](CCC(=O)O)C(=O)N1CCC[C@H]1C(=O)N1CCC[C@H]1C(=O)N1CCC[C@H]1C(=O)N[C@@H](CO)C(N)=O [Example 371] | 1.47 nM | 47.4 nM | 463 nM | 0.0128 nM | 0.327 nM | 4.46 nM
CC[C@H](C)[C@H](NC(=O)[C@H](Cc1ccccc1)NC(=O)[C@H](CCCN)NC(=O)C(C)(C)NC(=O)[C@H](CCC(N)=O)NC(=O)[C@H](C)NC(=O)[C@H](CCCCNC(=O)CC[C@H](NC(=O)CC[C@H](NC(=O)CCCCCCCCCCCCCCCCC(=O)O)C(=O)O)C(=O)O)NC(=O)[C@H](CCCN)NC(=O)[C@H](CC(=O)O)NC(=O)[C@H](CC(C)C)NC(=O)[C@](C)(CC(C)C)NC(=O)[C@@H](NC(=O)[C@H](CO)NC(=O)[C@H](Cc1ccncc1)NC(=O)[C@H](CC(=O)O)NC(=O)[C@H](CO)NC(=O)[C@@H](NC(=O)[C@](C)(Cc1ccccc1F)NC(=O)[C@@H](NC(=O)CNC(=O)[C@H](CCC(N)=O)NC(=O)C(C)(C)NC(=O)[C@@H](N)Cc1ccc(O)cc1)[C@@H](C)O)[C@@H](C)O)[C@@H](C)CC)C(=O)N[C@H](CCC(=O)O)C(=O)N[C@@](C)(Cc1ccc(O)cc1)C(=O)N[C@@H](CC(C)C)C(=O)N[C@@H](CC(C)C)C(=O)N[C@@H](CCC(=O)O)C(=O)NCC(=O)NCC(=O)N1CCC[C@H]1C(=O)N[C@@H](CO)C(=O)N[C@@H](CO)C(=O)NCC(=O)N[C@@H](CCC(=O)O)C(=O)N1CCC[C@H]1C(=O)N1CCC[C@H]1C(=O)N1CCC[C@H]1C(=O)N[C@@H](CCC(=O)O)C(N)=O [Example 372] (H-Y[Aib]QGT[αMePhe(2-F)]TSD[4Pal]SI[αMeL]LD[Orn]K([γGlu-γGlu-C18 diacid])AQ[Aib][Orn]FI[dE][αMeY]LLEGGPSSGEPPPE-NH2) | 2.63 nM | 53.1 nM | 468 nM | 0.0161 nM | 0.333 nM | 7.54 nM
CC[C@H](C)[C@H](NC(=O)[C@H](Cc1ccccc1)NC(=O)[C@H](CCCN)NC(=O)C(C)(C)NC(=O)[C@H](CCC(N)=O)NC(=O)[C@H](C)NC(=O)[C@H](CCCCNC(=O)CC[C@H](NC(=O)CC[C@H](NC(=O)CCCCCCCCCCCCCCCCC(=O)O)C(=O)O)C(=O)O)NC(=O)[C@H](CCCN)NC(=O)[C@H](CC(=O)O)NC(=O)[C@H](CC(C)C)NC(=O)[C@](C)(CC(C)C)NC(=O)[C@@H](NC(=O)[C@H](CO)NC(=O)[C@H](Cc1ccncc1)NC(=O)[C@H](CC(=O)O)NC(=O)[C@H](CO)NC(=O)[C@@H](NC(=O)[C@](C)(Cc1ccccc1F)NC(=O)[C@@H](NC(=O)CNC(=O)[C@H](CCC(N)=O)NC(=O)C(C)(C)NC(=O)[C@@H](N)Cc1ccc(O)cc1)[C@@H](C)O)[C@@H](C)O)[C@@H](C)CC)C(=O)N[C@H](CCC(=O)O)C(=O)N[C@@](C)(Cc1ccc(O)cc1)C(=O)N[C@@H](CC(C)C)C(=O)N[C@@H](CC(C)C)C(=O)N[C@@H](CCC(=O)O)C(=O)NCC(=O)NCC(=O)N1CCC[C@H]1C(=O)N[C@@H](CO)C(=O)N[C@@H](CO)C(=O)NC(C)(C)C(=O)N[C@@H](CCC(=O)O)C(=O)N1CCC[C@H]1C(=O)N1CCC[C@H]1C(=O)N1CCC[C@H]1C(=O)N[C@@H](CCC(=O)O)C(N)=O [Example 373] (H-Y[Aib]QGT[αMePhe(2-F)]TSD[4Pal]SI[αMeL]LD[Orn]K([γGlu-γGlu-C18 diacid])AQ[Aib][Orn]FI[dE][αMeY]LLEGGPSS[Aib]EPPPE-NH2) | 1.97 nM | 54.5 nM | 666 nM | 0.0183 nM | 0.392 nM | 4.48 nM
